Measurements taken from US9399635B2, “Pyrazole derivative” (GREEN TECH CO., LTD., priority 2011, dated 2016).
Read-outs that look alike come from different tables or passages of the source.

Key:
[1] = target: recombinant three-repeat microtubule-binding domain (3R-MBD) of tau protein (Homo sapiens, UniProt P10636); assay: Determination of tau aggregation inhibitory activity (heparin-induced, thioflavin T fluorescence; electron microscope); assay type: biochemical
Method: Pharmacological Test Example 1: Determination of Tau Aggregation Inhibitory Activity
A recombinant three-repeat microtubule-binding domain (3R-MBD) of tau protein was expressed in E. coli and was purified and used for the experiment. The purified tau solution was diluted with a 50 mM Tris-HCl buffer (pH 7.6) to a final concentration of 10 μM. The test compounds were prepared using dimethylsulfoxide (DMSO) at 20-fold of their final concentrations and added to the plate so that the DMSO concentration would be 5%. Heparin was added to the plate so that the final concentration would be 10 μM and the plate was left to stand at 37° C. for 16 hours. Thioflavin T was added to the plate so that the concentration would be 10 μM and the fluorescence intensity was measured with a fluorescence plate reader (PerkinElmer, Inc.) (excitation wavelength: 440 nm; emission wavelength: 480 nm).
(§1) The final concentration of each compound at the time of measurement was set at 0.1, 0.3, 1, 3, and 10 μM. The sample to which only DMSO was added was used as a negative control and its fluorescence intensity was taken as 0% inhibitory activity.
The samples were placed on a grid and washed with distilled water. A 1 mM phosphotungstic acid aqueous solution was added to the samples. The samples were washed, dried overnight, and observed.

Aβ 1-42 = target: T1, Aβ 1-42 (Homo sapiens, UniProt P05067); assay: Determination of Aβ aggregation inhibitory activity (thioflavin T fluorescence); assay type: biochemical; details: Aβ 1-42, 37° C. for 24 hours, thioflavin T; read-out: IC50 (μM) Test example 3 (Aβ aggregation inhibitory activity)
T1 construct: Aβ 1-42 (Peptide Institute, Inc.) was dissolved in 0.3% ammonia water; purchased Peptide Institute, Inc
T1 sequence (P05067 672-713): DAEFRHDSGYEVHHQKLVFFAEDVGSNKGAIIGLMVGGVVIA
Method: Pharmacological test example 3: Determination of Aβ aggregation inhibitory activity
Aβ 1-42 (Peptide Institute, Inc.) was dissolved in 0.3% ammonia water so that the concentration would be 0.5 mM and then diluted with PBS to 20 μM. The test compounds were prepared using DMSO at 100-fold of their final concentrations and adjusted so that the DMSO concentration would be 2%. The Aβ solution and each of the test compound solutions were mixed at an equivalent ratio and the mixtures were incubated at 37° C. for 24 hours. To each of the mixtures, an equal volume of a thioflavin T solution adjusted with a 100 mM Tris-glycine buffer (pH 8.5) to 6 μM was added. The fluorescence intensity was measured with a fluorescence plate reader (excitation wavelength: 440 nm; emission wavelength: 480 nm).
as §1

[2] = Evaluation of in vivo pharmacokinetics (blood and brain concentrations, LC-MS/MS); details: SD rats
Method: Pharmacological test example 4: Evaluation of in vivo pharmacokinetics
To SD rats (male, 7 weeks old), the test compound was orally administered (p. o.) at an amount of 50 mg/kg bw or intravenously administered (i.v.) at an amount of 1 mg/kg bw and the concentrations in the blood and brain were measured up to 3 hours. The administration vehicle was an 80% PEG 400 aqueous solution. The blood was collected under isoflurane inhalational anesthesia and the brain was harvested after the rats were sacrificed. The plasma was separated from the blood. The brain was homogenized after addition of a three-fold volume of PBS and then methanol was added thereto. Thus the prepared test samples were subjected to measurement. The measurement was performed by LC-MS/MS (Applied Biosystems and Waters).
The blood concentration changes of the compounds of Example 2 and Example 2 (2) ((1E,6E)-1-(1H-indol-6-yl)-7-[2-methoxy-4-(2-pyridylmethoxy)phenyl]hepta-1,6-diene-3,5-dione) after oral administration (p.o.) thereof are shown in FIG. 2. The brain concentration changes of the compounds after intravenous administration (i.v.) and oral administration (p.o.) thereof are shown in Table 2.

[3] = tested on: sarcosyl-insoluble tau in the brain of tau N279K Tg mice; assay: Tau aggregation inhibitory activity in mice with oral administration (brain sarcosyl-insoluble tau ELISA); assay type: in vivo; details: oral 10, 20, or 40 mg/kg bw/day, four weeks (FIG. 4)
Method: Pharmacological test example 6: Determination of tau aggregation inhibitory activity in mice with oral administration
To tau N279K Tg mice (male, 8 months old, n=8), the compound of Example 2 was orally administered and the tau concentration in the brain was measured. The administration vehicle was an 80% PEG 400 aqueous solution. The dose volume was 10 mL/kg bw/day and the dose was adjusted to be 10, 20, or 40 mg/kg bw/day. To Vehicle group, 10 mL/kg bw/day of an 80% PEG 400 aqueous solution was administered. To Positive control compound group, methylene blue (MB) adjusted to be 40 mg/kg bw/day was administered. Administration was performed with an oral feeding tube (Fuchigami Kikai Company) by gavage and continued for four weeks. After termination of the administration, the mice were sacrificed under pentobarbital anesthesia and the brain was harvested. The brain was homogenized after addition of a 5-fold volume of a high salt buffer (0.8 M NaCl, 1 mM EGTA, 10 mM Tris-HCl, 10% sucrose). […] An amount of 100 μL of a reaction stop solution was added to stop the chromogenic reaction and the absorbance was measured at 450 nm with a microplate reader. The tau concentration was determined from the standard curve produced from the measured values of the standard curve dilution series.

Chain of recombinant three-repeat microtubule-binding domain (3R-MBD) of tau protein (P10636 186-279 isoform P10636-2 limits assumed): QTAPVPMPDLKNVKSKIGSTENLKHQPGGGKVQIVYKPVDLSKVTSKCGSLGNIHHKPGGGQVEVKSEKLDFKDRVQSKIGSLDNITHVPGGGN

## COc1cc(OCc2ccccn2)ccc1/C=C/c1cc(/C=C/c2ccc3cc[nH]c3c2)[nH]n1 [Example 2, 3-[(1E)-2-(1H-indol-6-yl)ethenyl]-5-[(1E)-2-[2-methoxy-4-(2-pyridylmethoxy)phenyl]ethenyl]-1H-pyrazole]
[1]; 0.1 μM and 1 μM, compared with DMSO only (FIG. 1)
  tau aggregate formation observed with an electron microscope: less tau aggregate formation
[1]; 3R-MBD tau 10 μM, heparin 10 μM, 37° C. for 16 hours, thioflavin T, read-out: IC50 (μM) Test example 1 (tau aggregation inhibitory activity)
  IC50: 0.92 µM
Aβ 1-42
  IC50: 1.5 µM
[2]; p.o. 50 mg/kg bw or i.v. 1 mg/kg bw (FIG. 2, Table 2)
  blood and brain concentrations compared with the compound of Example 2 (2): higher blood and brain concentrations
[2]; male, rat, intravenous 1 mg/kg bw, 5 min, brain, read-out: brain concentration i.v. 5 min
  concentration at 5 min: 48.7 ng/mL
[2]; male, rat, intravenous 1 mg/kg bw, brain, read-out: brain concentration i.v. 180 min
  concentration at 180 min: 17.5 ng/mL
[2]; male, rat, oral 50 mg/kg bw, 60 min, brain, read-out: brain concentration p.o. 60 min
  concentration at 60 min: 8.54 ± 2.93 ng/mL
[2]; male, rat, oral 50 mg/kg bw, brain, read-out: brain concentration p.o. 180 min
  concentration at 180 min: 68.9 ± 39.4 ng/mL
[3]
  amount of the sarcosyl-insoluble tau in the brain: decreased in a dose-dependent manner
